Measured values as given in ChEMBL document CHEMBL2029289, “Structure-activity relationship study of a CXC chemokine receptor type 4 antagonist, FC131, using a series of alkene dipeptide isosteres” (J Med Chem, 2012).

Target: C-X-C chemokine receptor type 4 (Homo sapiens, UniProt P61073)
Experiment: Displacement of [125I]SDF-1alpha from CXCR4 expressed in HEK293 cell membrane after 1 hr
Assay type: cell membranes

C-X-C chemokine receptor type 4, sequence (P61073 whole entry): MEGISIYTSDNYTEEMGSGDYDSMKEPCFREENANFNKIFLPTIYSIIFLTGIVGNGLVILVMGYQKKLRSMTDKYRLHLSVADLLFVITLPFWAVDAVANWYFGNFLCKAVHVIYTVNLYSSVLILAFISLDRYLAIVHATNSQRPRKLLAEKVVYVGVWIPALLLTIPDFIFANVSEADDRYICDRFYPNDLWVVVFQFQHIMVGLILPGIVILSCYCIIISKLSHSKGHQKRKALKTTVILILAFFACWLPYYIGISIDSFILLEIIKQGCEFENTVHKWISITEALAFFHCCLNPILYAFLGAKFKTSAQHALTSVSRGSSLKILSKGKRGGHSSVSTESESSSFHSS

Compound | IC50
C/C1=C(/C)[C@@H](CCCNC(=N)N)C(=O)N[C@@H](CCCNC(=N)N)C(=O)N[C@@H](Cc2ccc3ccccc3c2)C(=O)NCC(=O)N[C@@H]1Cc1ccc(O)cc1 | 100 nM
CN1C(=O)[C@@H](Cc2ccc(O)cc2)NC(=O)CNC(=O)[C@H](Cc2ccc3ccccc3c2)NC(=O)[C@H](CCCN=C(N)N)NC(=O)[C@H]1CCCN=C(N)N | 63 nM
NC(N)=NCCC[C@H]1CC[C@H](Cc2ccc(O)cc2)NC(=O)CNC(=O)[C@H](Cc2ccc3ccccc3c2)NC(=O)[C@H](CCCN=C(N)N)NC1=O | > 10000 nM
CN1C(=O)[C@@H](Cc2ccc(O)cc2)NC(=O)CNC(=O)[C@H](Cc2ccc3ccccc3c2)NC(=O)[C@H](CCCNC(=N)N)NC(=O)[C@@H]1CCCNC(=N)N | 290 nM
C/C1=C\[C@H](CCCNC(=N)N)C(=O)N[C@@H](CCCNC(=N)N)C(=O)N[C@@H](Cc2ccc3ccccc3c2)C(=O)NCC(=O)N[C@@H]1Cc1ccc(O)cc1 | 500 nM
C/C1=C(/C)[C@@H](Cc2ccc(O)cc2)NC(=O)CNC(=O)[C@H](Cc2ccc3ccccc3c2)NC(=O)[C@H](CCCNC(=N)N)NC(=O)[C@H]1CCCNC(=N)N | 2500 nM
NC(N)=NCCC[C@H]1/C=C/[C@@H](Cc2ccc(O)cc2)NC(=O)CNC(=O)[C@H](Cc2ccc3ccccc3c2)NC(=O)[C@H](CCCN=C(N)N)NC1=O | 330 nM
